Measured values: article PMC5564600 (Oncotarget, 2017)

Columns and labels:
Assay in all cases: biochemical
Type in all cases: binding
[1] = molecular target: T1, panel of 442 kinases (Homo sapiens, UniProt P00519, Y253F); details: ABL1(Y253F)-phosphorylated; for remaining activity at 1 µM: read-out: % of control at 1 µM
T1 construct: purchased Ambit Biosciences (scanMAXX KINOMEscan)

[2] = molecular target: T2, panel of 442 kinases (Homo sapiens, UniProt P22694); details: kinase PKAC-beta; for remaining activity at 1 µM: read-out: PKAC-beta (% of control at 1 µM)
T2 construct: purchased Ambit Biosciences (scanMAXX KINOMEscan)

[3] = molecular target: T3, panel of 442 kinases (Homo sapiens, UniProt P29322); details: EPHA8; for remaining activity at 1 µM: read-out: % of control at 1 µM
T3 construct: purchased Ambit Biosciences (scanMAXX KINOMEscan)
T3 sequence (P29322 28-1005): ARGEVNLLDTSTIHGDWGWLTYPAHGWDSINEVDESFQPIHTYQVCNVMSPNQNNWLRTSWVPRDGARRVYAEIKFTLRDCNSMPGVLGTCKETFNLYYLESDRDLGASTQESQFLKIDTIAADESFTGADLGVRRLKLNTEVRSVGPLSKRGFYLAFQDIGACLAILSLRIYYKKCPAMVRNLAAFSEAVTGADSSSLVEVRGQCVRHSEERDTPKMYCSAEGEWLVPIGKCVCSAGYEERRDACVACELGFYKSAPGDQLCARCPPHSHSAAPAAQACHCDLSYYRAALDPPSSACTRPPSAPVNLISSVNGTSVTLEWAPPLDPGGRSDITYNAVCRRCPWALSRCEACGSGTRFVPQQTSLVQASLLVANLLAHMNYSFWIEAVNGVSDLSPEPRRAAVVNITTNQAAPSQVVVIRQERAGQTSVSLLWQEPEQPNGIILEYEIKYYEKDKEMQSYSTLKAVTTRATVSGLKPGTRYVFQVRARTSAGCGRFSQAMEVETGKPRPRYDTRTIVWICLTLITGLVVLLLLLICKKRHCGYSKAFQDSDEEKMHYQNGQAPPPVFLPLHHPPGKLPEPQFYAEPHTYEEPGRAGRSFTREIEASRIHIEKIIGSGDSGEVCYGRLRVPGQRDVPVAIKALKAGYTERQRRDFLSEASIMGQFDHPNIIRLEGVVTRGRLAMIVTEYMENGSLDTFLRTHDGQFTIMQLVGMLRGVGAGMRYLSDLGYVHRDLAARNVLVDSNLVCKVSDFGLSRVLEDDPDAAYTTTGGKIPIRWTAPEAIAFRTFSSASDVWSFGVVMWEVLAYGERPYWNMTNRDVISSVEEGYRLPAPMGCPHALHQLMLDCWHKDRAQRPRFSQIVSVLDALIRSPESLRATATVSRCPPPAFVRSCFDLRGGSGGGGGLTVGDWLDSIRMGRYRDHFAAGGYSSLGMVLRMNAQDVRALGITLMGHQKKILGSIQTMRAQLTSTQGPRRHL

[4] = molecular target: T4, panel of 442 kinases (Homo sapiens, UniProt P51956); details: kinase NEK3; for remaining activity at 1 µM: read-out: % of control at 1 µM
T4 construct: purchased Ambit Biosciences (scanMAXX KINOMEscan)
T4 sequence (P51956 1-506): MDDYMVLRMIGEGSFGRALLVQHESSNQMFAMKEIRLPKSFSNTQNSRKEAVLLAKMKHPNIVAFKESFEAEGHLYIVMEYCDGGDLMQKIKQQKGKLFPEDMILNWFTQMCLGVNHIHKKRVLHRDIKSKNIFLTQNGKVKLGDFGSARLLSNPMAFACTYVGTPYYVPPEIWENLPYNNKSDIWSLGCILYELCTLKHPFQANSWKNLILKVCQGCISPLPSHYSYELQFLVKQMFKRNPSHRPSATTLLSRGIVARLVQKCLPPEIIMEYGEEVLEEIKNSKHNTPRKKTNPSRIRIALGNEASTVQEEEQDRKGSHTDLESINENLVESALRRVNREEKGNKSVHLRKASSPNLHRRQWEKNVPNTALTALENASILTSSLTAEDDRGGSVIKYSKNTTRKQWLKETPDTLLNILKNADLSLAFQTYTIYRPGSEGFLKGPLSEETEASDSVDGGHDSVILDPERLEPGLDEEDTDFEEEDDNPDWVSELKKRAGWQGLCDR

[5] = molecular target: T5, panel of 442 kinases (Homo sapiens, UniProt Q99640); details: kinase PKMYT1; for remaining activity at 1 µM: read-out: PKMYT1 (% of control at 1 µM)
T5 construct: purchased Ambit Biosciences (scanMAXX KINOMEscan)
T5 sequence (Q99640 1-499): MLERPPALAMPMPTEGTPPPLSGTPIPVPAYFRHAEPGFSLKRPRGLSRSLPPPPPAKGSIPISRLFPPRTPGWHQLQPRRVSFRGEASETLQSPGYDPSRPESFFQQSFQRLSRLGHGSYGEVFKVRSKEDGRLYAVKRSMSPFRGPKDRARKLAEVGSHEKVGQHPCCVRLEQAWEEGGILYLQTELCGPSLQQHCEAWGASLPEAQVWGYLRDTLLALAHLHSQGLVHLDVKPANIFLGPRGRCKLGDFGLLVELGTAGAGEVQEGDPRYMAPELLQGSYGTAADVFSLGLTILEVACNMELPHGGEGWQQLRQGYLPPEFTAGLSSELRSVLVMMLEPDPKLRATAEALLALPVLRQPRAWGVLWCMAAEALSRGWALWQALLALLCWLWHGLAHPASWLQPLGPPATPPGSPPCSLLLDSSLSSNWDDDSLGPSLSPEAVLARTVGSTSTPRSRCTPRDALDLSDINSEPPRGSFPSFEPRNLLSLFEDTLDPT

[6] = 10 µM, read-out: % of control at 10 µM

| Compound | remaining activity at 1 µM [1] [%] | remaining activity at 10 µM [1, 6] [%] | remaining activity at 1 µM [2] [%] | remaining activity at 10 µM ([2]; 10 µM, read-out: PKAC-beta (% of control at 10 µM)) [%] | remaining activity at 1 µM [3] [%] | remaining activity at 10 µM [3, 6] [%] | remaining activity at 1 µM [4] [%] | remaining activity at 10 µM [4, 6] [%] | remaining activity at 1 µM [5] [%] | remaining activity at 10 µM ([5]; 10 µM, read-out: PKMYT1 (% of control at 10 µM)) [%] |
| --- | --- | --- | --- | --- | --- | --- | --- | --- | --- | --- |
| Nc1cc(C(F)(F)F)c(-c2cc(N3CCOCC3)nc(N3CCOCC3)n2)cn1 [Buparlisib] | 85 | 94 | 79 | 100 | 100 | 100 | 99 | 100 | 100 | 100 |
| COc1ncc(-c2ccc3nccc(-c4ccnnc4)c3c2)cc1NS(=O)(=O)c1ccc(F)cc1F [Omipalisib] | 100 | – | 100 | – | 100 | – | 93 | – | 81 | – |
| FC(F)c1nc2ccccc2n1-c1nc(N2CCOCC2)nc(N2CCOCC2)n1 [ZSTK474, 2-(difluoromethyl)-1-[4,6-di(4-morpholinyl)-1,3,5-triazin-2-yl]-1H-benzimidazole] | 96 | – | 100 | – | 100 | – | 73 | – | 72 | – |
| Cn1c(=O)n(-c2ccc(C(C)(C)C#N)cc2)c2c3cc(-c4cnc5ccccc5c4)ccc3ncc21 [Dactolisib, 2-methyl-2-[4-(3-methyl-2-oxo-8-quinolin-3-yl-2,3-dihydroimidazo[4,5-c]quinolin-1-yl)-phenyl] propionitrile] | 82 | – | 90 | – | 94 | – | 78 | – | 75 | – |
